Counter-ions that a name gives are not always drawn.

Consider 10 compounds from patent US10117853B2, “Cyclic amine derivative and pharmaceutical use thereof” (Toray Industries, Inc., priority 2015, dated 2018).

Assay [1] deals with mouse partial sciatic nerve ligation model. The assay is described as follows: Mouse partial sciatic nerve ligation model (Seltzer model), von Frey test. Conditions: oral administration seven days after ligation; 0.01 to 10 mg/kg depending on compound, pregabalin 10 mg/kg; 1, 2, 3 hours after administration; versus partial sciatic nerve ligation+distilled water group. It counts as in vivo, Crl: CD1 (ICR) mice. The procedure:
Using a partial sciatic nerve ligation model (Seltzer model) in mice by which neuropathic pain can be evaluated, the analgesic action of a cyclic amine derivative (I) or a pharmacologically acceptable salt thereof was investigated.
The mouse partial sciatic nerve ligation model was prepared in accordance with the method of Seltzer et al. (Malmberg et al., Pain, vol. 76, p. 215-222, 1998).
Crl: CD1 (ICR) mice (5 weeks old, male; from CHARLES RIVER LABORATORIES JAPAN, INC.) was anesthetized with sodium pentobarbital (70 mg/kg, intraperitoneal administration). The sciatic nerve at the femoral region of the right hind paw of each mouse was exposed and triply ligated tightly with silk suture of 8-0 (from NATSUME […]., LTD.) under a stereomicroscope so that only half thickness of the nerve was trapped in the ligature. A group of mice thus treated was designated as a partial sciatic nerve ligation group. A group of mice whose sciatic nerve was just exposed and not ligated was designated as a sham surgery group.
Evaluation of neuropathic pain (hereinafter referred to as von Frey test) was performed as follows. Mice were conditioned for at least one hour in an acrylic cage for measurement (from NATSUME […]. LTD.) placed on a wire net. Thereafter, using a filament (from North Coast Medical or neuroscience) which exerted a pressure of 0.16 g, the mice were subjected to mechanical tactile stimulus by applying the filament to the plantar surface of the right hind paw 3 times, each for 3 seconds, with an interval of 3 seconds.
Seven days after the sciatic nerve ligation surgery, the compound of Example 4, 6, 8, 10, 12, 14, 16, 18 or 20 (1 to 10 mg/kg for each of the compounds of Examples 4, 6 and 8, 0.1 to 10 mg/kg for each of the compounds of Examples 16 and 18, 0.01 to 10 mg/kg for each of the compounds of Examples 10, 12 and 14; and 0.1 to 1 mg/kg for the compound of Example 20) or pregabalin as a positive control (10 mg/kg; KEMPROTEC) was dissolved in distilled water and orally administered to mice of the partial sciatic nerve ligation group. The groups of the partial sciatic nerve ligation mice to which the compound of Example 4, 6, 8, 10, 12, 14, 16, 18 or 20 was administered were designated as a “partial sciatic nerve ligation+the compound of Example 4” group; a “partial sciatic nerve ligation+the compound of Example 6” group; a “partial sciatic nerve ligation+the compound of Example 8” group; a “partial sciatic nerve ligation+the compound of Example 10” group; a “partial sciatic nerve ligation+the compound of Example 12” group; a “partial sciatic nerve ligation+the compound of Example 14” group; a “partial sciatic nerve ligation+the compound of Example 16” group; a “partial sciatic nerve ligation+the compound of Example 18” group; and a “partial sciatic nerve ligation+the compound of Example 20” group, respectively. The partial sciatic nerve ligation mouse group to which pregabalin was administered, was designated as a “partial sciatic nerve ligation+pregabalin” group. Also, the partial sciatic nerve ligation mouse group to which distilled water was orally administered, was designated as a “partial sciatic nerve ligation+distilled water” group. The sham surgery mouse group to which distilled water was orally administered was designated as a “sham surgery+distilled water” group.
The von Frey test was carried out before oral administration of a test compound (pre-value), one hour, two hours and three hours after the oral administration of a test compound.
In the figures, the vertical axis represents the total score (mean value±standard error; n=5 to 6 in FIGS. 1 to 9) in the von Frey test. The higher numerical value indicates stronger pain. The horizontal axis represents time (hr) after administration of a test compound. […]

Assay [2] has as its system fibromyalgia syndrome model rats. The assay is described as follows: Fibromyalgia syndrome model in rats (acidic saline), allodynia by von Frey filament. Format: in vivo, Crl: CD(SD) rat. Conditions: oral administration; Example 6 10 to 100 mg/kg, Example 18 1 to 100 mg/kg, pregabalin 10 mg/kg; 1 and 3 hours after administration; versus acidic saline+distilled water group. From the text:
Using a fibromyalgia syndrome model in rats by which fibromyalgia syndrome can be evaluated, the analgesic action of a cyclic amine derivative (I) or a pharmacologically acceptable salt thereof was investigated.
To prepare a fibromyalgia syndrome model rat (Sluka et al., Journal of Pharmacology and Experimental Therapeutics, vol. 302, p. 1146-1150, 2002; Nagakura et al., Pain, vol. 146, p. 26-33, 2009; Sluka et al., Pain, vol. 146, p. 3-4, 2009), which is generally employed widely in basic research for fibromyalgia syndrome, acidic saline (100 μL) adjusted to pH4.0 was intramuscularly injected to the gastrocnemius muscle of the right hind paw of Crl: CD(SD) rat (6 to 7 weeks old, male; from CHARLES RIVER LABORATORIES JAPAN, INC.) under continuous inhalation anesthesia with isoflurane, twice (once in each day of Day 1 and Day 6, wherein Day 1 was the date on which the acidic saline was initially administrated). The rats thus prepared were raised in a breeding room controlled at an indoor temperature of 21 to 25° C. and an indoor humidity of 40 to 70% under the conditions of voluntary intake of food and water. In the same manner, rats to which physiological saline in place of acidic saline was intramuscularly injected were raised. The rats thus raised and not afflicted with fibromyalgia syndrome (“physiological saline+distilled water” group in FIG. 10 or 11) were also used in the experiment.
Seven days after the initial administration of acidic saline, allodynia in each rat was measured. […]
The compounds of Examples 6 and 18 (10 to 100 mg/kg for the compound of Example 6; 1 to 100 mg/kg for the compound of Example 18) were separately dissolved in distilled water and orally administered to fibromyalgia model rats (“acidic saline+the compound of Example 6” in FIG. 10 and “acidic saline+the compound of Example 18” in FIG. 11). […] In one hour and three hours after the oral administration, allodynia in individual rats was measured to evaluate an analgesic action. […]

`CCCCCCCCOC(=O)CCn1ccnc1CCC(=O)N1CC[C@H](N(C)C)C1` [Example 8, n-octyl (S)-3-(2-(3-(3-(dimethylamino)pyrrolidin-1-yl)-3-oxopropyl)-1H-imidazol-1-yl)propanoate hydrochloride]: the “analgesic action, total score in the von Frey test” value (from here on “analgesic action, total score”) in assay [1] is “statistically significant analgesic action”. Same read-out and setting: to `CCCOC(=O)Cn1ccnc1CCC(=O)N1CCC(N2CCOCC2)CC1` [Example 10, n-propyl 2-(2-(3-(4-morpholinopiperidin-1-yl)-3-oxopropyl)-1H-imidazol-1-yl)acetate hydrochloride] belongs “statistically significant analgesic action”. Take `CC(C)C[C@H](CN)CC(=O)O` [pregabalin, reference compound]: the “allodynia, 50% response threshold (mean value of the right hind paw and the left hind paw)” value (“allodynia, 50% response threshold” below) in assay [2] is reported as “statistically significantly improved”. Besides, the “analgesic action, total score” value in assay [1] is “statistically significant analgesic action”. On to `CCCCCCCOC(=O)CCn1ccnc1CCC(=O)N1CC[C@H](N(C)C)C1` [Example 6, n-heptyl (S)-3-(2-(3-(3-(dimethylamino)pyrrolidin-1-yl)-3-oxopropyl)-1H-imidazol-1-yl)propanote hydrochloride], for which, in assay [2], the “allodynia, 50% response threshold” value is given as “statistically significantly improved”. Also, the “analgesic action, total score” value in assay [1] is listed as “statistically significant analgesic action”.

`CCCCOC(=O)Cn1ccnc1CCC(=O)N1CCC(N2CCOCC2)CC1` [Example 12, n-butyl 2-(2-(3-(4-morpholinopiperidin-1-yl)-3-oxopropyl)-1H-imidazol-1-yl)acetate hydrochloride]: in assay [1], the “analgesic action, total score” value is on record as “statistically significant analgesic action”.

In the case of `CCCCCCOC(=O)Cn1ccnc1CCC(=O)N1CCC(N2CCOCC2)CC1` [Example 16, n-hexyl 2-(2-(3-(4-morpholinopiperidin-1-yl)-3-oxopropyl)-1H-imidazol-1-yl)acetate hydrochloride], in assay [1], the “analgesic action, total score” value is “statistically significant analgesic action”. On the same count and under the same terms, to `CCCCCOC(=O)Cn1ccnc1CCC(=O)N1CCC(N2CCOCC2)CC1` [Example 14, n-pentyl 2-(2-(3-(4-morpholinopiperidin-1-yl)-3-oxopropyl)-1H-imidazol-1-yl)acetate hydrochloride] belongs “statistically significant analgesic action”. Consider `CCCCCCCOC(=O)Cn1ccnc1CCC(=O)N1CCC(N2CCOCC2)CC1` [Example 18, n-heptyl 2-(2-(3-(4-morpholinopiperidin-1-yl)-3-oxopropyl)-1H-imidazol-1-yl)acetate hydrochloride], for which, in assay [2], the “allodynia, 50% response threshold” value was “statistically significantly improved”. For the same compound, the “analgesic action, total score” value in assay [1] was “statistically significant analgesic action”. For `CCCCCCOC(=O)CCn1ccnc1CCC(=O)N1CC[C@H](N(C)C)C1` [Example 4, n-hexyl (S)-3-(2-(3-(3-(dimethylamino)pyrrolidin-1-yl)-3-oxopropyl)-1H-imidazol-1-yl)propanoate hydrochloride], the “analgesic action, total score” value in assay [1] is reported as “statistically significant analgesic action”. Still for that read-out and setting: under `CCCCCCCCOC(=O)Cn1ccnc1CCC(=O)N1CCC(N2CCOCC2)CC1` [Example 20, n-octyl 2-(2-(3-(4-morpholinopiperidin-1-yl)-3-oxopropyl)-1H-imidazol-1-yl)acetate hydrochloride] stands “statistically significant analgesic action”.
